The experiment has as its system Mtb. The experiment can be described thus: detecting sensitivity of a host bacterial strain (Mtb) to a drug with the ARP phage, luminescence read with a luminometer. The format is cell-based, Mycobacterium tuberculosis. The following applies: for bioluminescence intensity compared to a control: culture at 37° C. for at least 4 hours, DMSO control.
The mark [1] stands for this setting: 37° C., at least 4 hours, RIF 2 μg/mL, INH 1 μg/mL, LZD 1 μg/mL, PNU 0.5 μg/mL.
The mark [2] stands for this setting: FIG. 12, RIF 2 μg/mL, INH 1 μg/mL, LZD 1 μg/mL, PNU 0.5 μg/mL.

On to `CC[C@@H](CO)NCCN[C@@H](CC)CO` [ethambutol], for which the “bioluminescence compared to a control” value (FIG. 12, culture for 8 hours, EMB 5 μg/mL) was “significant decrease in bioluminescence”. For the same compound, the “statistical difference between drug group and DMSO control (n.s., p>0.05)” value (FIG. 12 legend, EMB 5 μg/mL, time not printed in legend) is recorded as “no statistical difference”. For the same compound, the “sensitivity of Mtb to the drug at the concentration” value (from here on “sensitivity of Mtb to the drug”) (culture for 8 hours, EMB 5 μg/mL) is on record as “sensitivity”.
Take `CC(=O)NC[C@H]1CN(c2ccc(N3CCOCC3)c(F)c2)C(=O)O1` [linezolid]: the “sensitivity of Mtb to the drug” value under setting [1] is “sensitivities”. Besides, the “bioluminescence intensity compared to a control” value under setting [2] was “significant decrease of bioluminescence intensity”.
For `NNC(=O)c1ccncc1` [isoniazid], the “sensitivity of Mtb to the drug” value under setting [1] is recorded as “sensitivities”. Besides, the “bioluminescence intensity compared to a control” value under setting [2] is “significant decrease of bioluminescence intensity”.
